Tests used:
Assay in all cases: relative viability (nuclei count vs DMSO), 5 days (fraction); higher = more cells survive
[1] = compound: CN(C)C(=N)NC(=N)N [Metformin] + C[C@]1(O)C[C@@H](c2nc(-c3ccc4ccc(-c5ccccc5)nc4c3)c3c(N)nccn32)C1 [Linsitinib] (partner 1 µM)
Procedure, shortened: (§1)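 Relative viability equals treated-well nuclei counts divided by vehicle-well nuclei counts. Counts came from 4× images of lung cancer cell lines grown in 1536-well plates for 5 days after pin-tool dosing on the day after seeding. Dosing used one drug alone or a fixed anchor-drug dose plus five library-drug doses (not always all listed) in √10 steps, and values are medians of duplicate plates.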

[2] = compound: CN(C)C(=N)NC(=N)N [Metformin] + CC(C)C[C@H](NC(=O)[C@H](Cc1ccccc1)NC(=O)c1cnccn1)B(O)O [Bortezomib] (partner 0.002 µM)
Procedure, shortened: as §1

[3] = compound: N#CC1(c2ccc(NC(=O)c3cccnc3NCc3ccncc3)cc2)CCCC1 [Apatinib] + CC(=O)c1c(C)c2cnc(Nc3ccc(N4CCNCC4)cn3)nc2n(C2CCCC2)c1=O [Palbociclib] (partner 0.5 µM)
Procedure, shortened: as §1

[4] = compound: N#CC1(c2ccc(NC(=O)c3cccnc3NCc3ccncc3)cc2)CCCC1 [Apatinib] + Cc1nc(Nc2ncc(C(=O)Nc3c(C)cccc3Cl)s2)cc(N2CCN(CCO)CC2)n1 [Dasatinib] (partner 0.075 µM)
Procedure, shortened: as §1

Cell Line	relative viability ([1]; first compound 10 µM)	relative viability ([1]; first compound 31.62 µM)	relative viability ([1]; first compound 100 µM)	relative viability ([1]; first compound 316.23 µM)	relative viability ([1]; first compound 1000 µM)	relative viability ([2]; first compound 10 µM)	relative viability ([2]; first compound 31.62 µM)	relative viability ([2]; first compound 100 µM)	relative viability ([2]; first compound 316.23 µM)	relative viability ([2]; first compound 1000 µM)	relative viability ([3]; first compound 0.08 µM)	relative viability ([3]; first compound 0.253 µM)	relative viability ([3]; first compound 0.8 µM)	relative viability ([3]; first compound 2.53 µM)	relative viability ([3]; first compound 8 µM)	relative viability ([4]; first compound 0.08 µM)	relative viability ([4]; first compound 0.253 µM)	relative viability ([4]; first compound 0.8 µM)	relative viability ([4]; first compound 2.53 µM)	relative viability ([4]; first compound 8 µM)
NCI-H2085	0.822	0.8	0.765	0.844	0.875	1.1	1.05	1.01	1.09	1.16	0.469	0.493	0.487	0.416	0.437	0.229	0.229	0.231	0.243	0.215
HCC-78	0.842	0.927	0.877	0.681	0.927	0.842	0.797	0.929	0.831	0.853	0.48	0.453	0.476	0.494	0.442	0.332	0.289	0.361	0.333	0.302
LCLC-97TM1	0.175	0.17	0.146	0.187	0.243	0.635	0.87	0.789	0.713	0.351	0.238	0.276	0.193	0.204	0.173	0.824	0.763	0.767	0.711	0.504
NCI-H441	0.432	–	0.536	0.478	0.605	0.273	–	0.344	–	0.404	0.234	0.217	0.219	0.211	0.212	0.646	0.486	0.511	0.566	0.449
NCI-H1651	1.3	1.23	1.35	1.21	1.43	0.989	1.15	1.16	1.04	1.08	0.516	0.522	0.489	0.514	0.459	0.386	0.492	0.387	0.251	0.365

— the supplement of paper PMC10307832
